Laboratory results published in US20030055106A1, “Therapeutic uses of peroxometallic compounds” (priority 1999, published 2003).

Key:
[1] = tested on: air pouch exudates (leukocyte recruitment, pro-inflammatory mediators); experiment: Murine air pouch model, L. major intra-pouch injection; format: in vivo, BALB/c mice
Method: FIG. 6: Neutrophils, eosinophils and MØ recruited in air pouch exudates of bpV(phen)-treated BALB/c mice in response to L. major promastigotes intra-pouch injection. Air pouch exudates were collected from animals injected with endotoxin-free PBS, LPS (20 μg/ml), L. major and bpV(phen) (500 nM i.p., 2 hour)+L. major, 6 hr post-inoculation. Each time point represents the mean±SD (n=4 mice) of 2 experiments similarly performed.
FIG. 7: In vivo Leishmania-induced pro-inflammatory mediator generations in pV-treated mice. (A) Nitrate level determination in air pouch exudates collected 6 hr post-inoculation of endotoxin-free PBS, L. major and bpV(phen) followed by L. major has been performed. Values are the mean±SEM of 2 experiments performed independently. (B) Evaluation of pro-inflammatory cytokines (IL-6 and IL-1β) and chemokines (MCP-1 and MIP-2) secreted in air pouch exudates collected as described above were measured by ELISA as described in more detail below. Values are the mean±SEM of 2 experiments performed independently. […] IL-6, IL-1β, MCP-1 and MIP-2 secretion were respectively 12.8-, 2-, 8- and 6.8-time more secreted in L. major -injected bpV(phen)-treated animals compared to L. major alone. PBS control was equal to background.
With the use of a murine air pouch model, we investigated early inflammatory events that occur following L. major skin injection in bpV(phen)-treated animals (FIG. 6).
In parallel to this experiment, in vivo generation of Leishmania-induced NO and pro-inflammatory mediators in bpV(phen)-treated mice were measured in air pouch exudates (FIG. 7).

[2] = tested on: Human prostate adenocarcinoma (PC-3); experiment: Human prostate adenocarcinoma (PC-3) xenograft; format: in vivo, Male Balb/c nude (nu/nu) mice; conditions: 5 mg/Kg daily i.p. for 39 days
Method: B) Human prostate adenocarcinoma (PC-3) in the athymic mice: Male Balb/c nude (nu/nu) were purchased at 4-6 weeks of age from Charles Rivers Inc. Mice were housed under pathogen free conditions and maintained on a 12-h light/12-h dark cycle with food and water supplied ad libitum. The hormono-independent PC3 human tumor cells were from the American Tissue Cuture Collection. Cells were grown in DMEM in the presence of 5% foetal bovine serum. Cells were collected at confluence, included in a matrix (1.0×10^6 cells/ml; 30% Matrigel). An equal volume of the tumor cell suspension was injected s.c. in the right flank of each mouse. After 5 days, a palpable tumor of approximately 5×5 mm was detected in the inoculated animals. Mice with palpable tumors were divided into five groups (18 mice/group) for the treatment study. All mice in each treatment group had tumor of similar size at the start of treatment. For administration to mice, bpV(phen) was dissolved and diluted in phosphate buffered saline (PBS) at pH 7.4. A 5 mg/Kg dose of bpV(phen) was administed daily by i.p. for 39 days. Taxol was used as a positive control at the dose of 20 mg/Kg and injected i.p. at every three days. A control group of 10 animals was injected with PBS. The injection volume was kept constant at […]. The mice were weighed three times during the experimental period to assess toxicity of the treatment, and the tumors were measured twice weekly using calipers. Tumor volume was calculated from the two-dimensional caliper measurements using the following formula: tumor volume=length×(width)^2×0.53.
The treatment period was completed after 39 days, when the PBS treated group of mice had large tumors, requiring that the animals be sacrificed according to the Animal Care Procedures. […]
Statistical analysis: Tumor growth curves are presented in terms of treatment group means and SEs. Statistical significance of treatment effect was assessed by repeated measures ANOVA after applying a power transformation to equalize residual variances and linearize the tumor growth curves.

Leishmania major = experiment: Leishmania vaccination trial (adjuvant); set-up: species or system BALB/c mice; conditions: in vivo, Leishmania infection
Method: FIG. 10: Use of bpV(phen) as an adjuvant in Leishmania vaccination trial. BALB/c mice were inoculated with soluble Leishmania major antigen (SLA; 100 μg) with or without daily injection of bpV(phen) ([…]) for 5 days. Two weeks later animals received a second set of treatment as above. Control animals received either PBS or bpV(phen) alone without any SLA. At 4 weeks post-vaccination, animals were challenged with 5 million Leishmania major stationary phase promastigotes injected in the right hind footpad. Progression of infection was followed by measuring footpad thickness with a caliper on a weekly basis. Differences measured for reduced footpad thickness were significant (p<0.01, Student's t test, n=5-10 animals per group) over their respective controls.
In the past, use of total and soluble Leishmania antigen (SLA) for vaccination has been reported and permitted some levels of protection against infectious challenges (85). Using a murine model, we have tested whether bpV(phen)-modulated cytokine and chemokine generation (as reported above) in combination with SLA administration could lead to protection against Leishmania infection. Mice have received PBS and bpv(phen) as controls, and SLA (100 μg) with or without daily bpV(phen) injection (500 nM, 5 days). All injections were done intra-peritoneally. […]

[3] = tested on: Human umbilical vein endothelial cells (HUVECs); conditions: read-out: approximate IC50, endothelial cell proliferation; 96 hours in culture
Method: Each experiment was performed in triplicate. The culture medium was changed daily.

[4] = tested on: Th1 and Th2 cytokine genes in spleen; experiment: Cytokine gene expression in spleen (multi-probe RNase protection assay); format: in vivo, BALB/c mice; conditions: naive mice; up to 24 hr; in comparison to PBS
From the text: FIG. 8: In vivo bpV(phen)-induced cytokine gene expression in spleen of BALB/c mice. Expression of Th1 (IFN-(, IL-2, IL-12) and Th2 (IL-4 and IL-10) cytokines were monitored in spleen of BALB/c mice in response to bpv(phen) over a 24-hr period. Expression of cytokine genes has been monitored using a multi-probe RNase protection assay as described in more detail below. Results obtained are representative of 3 experiments performed independently.

[5] = L. major-injected bpV(phen)-treated animals, 6 hr, ELISA
[6] = bpV(phen)-treated + L. major, 6 hr

O.O.O.OO.OO.[K+].[OH-].[V].c1cnc2c(c1)ccc1cccnc12 [bpV(phen), potassium bisperoxo(1,10-phenanthroline)oxovanadate]
NO generation (nitrate level) in air pouch exudates in response to L. major infection ([1]; 6 hr post-inoculation): enhanced generation | IL-1β secretion in air pouch exudates, compared to L. major alone [1, 5]: 2 time | IL-6 secretion in air pouch exudates, compared to L. major alone [1, 5]: 12.8 time | MCP-1 secretion in air pouch exudates, compared to L. major alone [1, 5]: 8 time | MIP-2 secretion in air pouch exudates, compared to L. major alone [1, 5]: 6.8 time | recruitment of cells in air pouch exudates ([1]; bpV(phen) 500 nM i.p., 2 hour + L. major 10^7 parasites/ml, 6 hours post-injection, vs L. major alone): five times greater | recruited leukocytes that were eosinophils [1, 6]: 18% | recruited leukocytes that were macrophages [1, 6]: 12% | recruited leukocytes that were neutrophils [1, 6]: ~70% | deaths [2]: No death | suppression of the final tumor compared with PBS-treated control animals [2]: 59% | body weight gained relative to weight at the initiation of the treatment ([2]; average): 1.7 grams | protection against infectious challenge (adjuvant potential) (Leishmania major): complete protection | IC50 [3]: ~2 µM | cytokine gene expression in spleen (IL-12, IL-10, IL-2 and IFN) [4]: significantly up-regulated
